Experimental data as given in US7897602B2, “Indolinone compounds as kinase inhibitors” (Development Center for Biotechnology, priority 2009, dated 2011).
Where a name gives a salt, the structure may show the parent alone.

How the values were obtained:
[1] = target: T1, Flt3 kinase (Homo sapiens, UniProt P36888); assay: Flt3 kinase assay (33P incorporation into Poly(Glu-Tyr)); type: biochemical; conditions: 100 nM test compound; read-out: Inhibition at 100 nM (%) Flt-3
T1 construct: recombinant N-terminal 6×His-tagged Flt3 kinase domain construct expressed from baculovirus; 6xHis (N); made in house
T1 sequence (P36888 610-943 limits assumed): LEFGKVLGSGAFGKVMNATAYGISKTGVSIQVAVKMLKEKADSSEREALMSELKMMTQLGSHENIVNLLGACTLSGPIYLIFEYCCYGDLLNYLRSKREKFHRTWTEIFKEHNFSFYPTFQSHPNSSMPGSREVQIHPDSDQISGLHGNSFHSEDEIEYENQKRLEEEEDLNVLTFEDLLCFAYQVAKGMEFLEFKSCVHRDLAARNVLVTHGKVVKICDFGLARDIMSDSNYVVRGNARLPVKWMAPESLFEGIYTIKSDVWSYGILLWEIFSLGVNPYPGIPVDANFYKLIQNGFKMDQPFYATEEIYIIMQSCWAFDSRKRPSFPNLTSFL
Summary of the method: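 Baculovirus-expressed His-tagged Flt3 kinase domain (5 ng) with Poly(Glu-Tyr) 4:1 substrate, 100 μM ATP plus [33P]-γ-ATP, in MOPS pH 7.0 buffer, 30 min at 30 °C. Compound tested at a single 100 nM concentration; filter-bound radioactivity counted and percent inhibition calculated relative to DMSO control.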

[2] = target: T2, PDGFR-β kinase (Homo sapiens, UniProt P09619); assay: PDGFR-β kinase assay (33P incorporation into Poly(Glu-Tyr)); type: biochemical; conditions: 500 nM test compound
T2 construct: recombinant N-terminal 6×His-tagged PDGFR-β kinase domain construct expressed by baculovirus; 6xHis (N); made in house
T2 sequence (P09619 600-962 limits assumed): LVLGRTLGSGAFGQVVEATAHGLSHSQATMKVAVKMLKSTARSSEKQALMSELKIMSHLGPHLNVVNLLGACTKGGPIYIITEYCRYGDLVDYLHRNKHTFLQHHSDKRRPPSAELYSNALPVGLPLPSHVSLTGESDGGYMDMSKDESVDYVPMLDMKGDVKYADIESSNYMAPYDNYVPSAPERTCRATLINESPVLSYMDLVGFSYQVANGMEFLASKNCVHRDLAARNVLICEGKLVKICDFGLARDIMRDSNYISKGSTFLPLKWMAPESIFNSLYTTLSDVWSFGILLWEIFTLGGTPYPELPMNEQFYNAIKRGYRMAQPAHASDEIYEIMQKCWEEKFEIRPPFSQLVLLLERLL
Summary of the method: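 His-tagged PDGFR-β kinase domain (55 ng) with Poly(Glu-Tyr) 4:1, 30 μM ATP plus [33P]-γ-ATP, pH 7.0 MnCl2 buffer, and 500 nM compound for 30 min at 30° C. Filter-bound radioactivity counted; inhibition computed relative to DMSO control.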

| SMILES | inhibition at 0.1 µM [1] [%] | inhibition at 0.5 µM [2] [%] |
| --- | --- | --- |
| O=C(O)CCc1c(/C=C2\C(=O)Nc3cc(-c4ccc(F)cc4)ccc32)[nH]c2c1C(=O)CCC2 [DCB-70099, (Z)-6-(4-fluorophenyl)-3-((3-carboxyethyl-4-oxo-4,5,6,7-tetrahydro-1H-indol-2-yl)methylene)indolin-2-one] | 6.9 | 74.6 |
| CCOC(=O)CCc1c(/C=C2\C(=O)Nc3cc(-c4cc(F)cc(F)c4)ccc32)[nH]c2c1C(=O)CCC2 [DCB-70100, (Z)-6-(3,5-difluorophenyl)-3-((3-(3-ethoxy-3-oxopropyl)-4-oxo-4,5,6,7-tetrahydro-1H-indol-2-yl)methylene)indolin-2-one] | 12.5 | 20.3 |
| O=C(O)CCc1c(/C=C2\C(=O)Nc3cc(-c4cc(F)cc(F)c4)ccc32)[nH]c2c1C(=O)CCC2 [DCB-70101, (Z)-6-(3,5-difluorophenyl)-3-((3-carboxyethyl-4-oxo-4,5,6,7-tetrahydro-1H-indol-2-yl)methylene)indolin-2-one] | 8.5 | 70.5 |
| CCOC(=O)CCc1c(/C=C2\C(=O)Nc3ccc(NS(=O)(=O)c4ccccc4)cc32)[nH]c2c1C(=O)CCC2 [DCB-70102, (Z)-5-phenylsulfonamido-3-((3-(3-ethoxy-3-oxopropyl)-4-oxo-4,5,6,7-tetrahydro-1H-indol-2-yl)methylene)indolin-2-one] | 75.9 | 32.8 |
| O=C(O)CCc1c(/C=C2\C(=O)Nc3ccc(NS(=O)(=O)c4ccccc4)cc32)[nH]c2c1C(=O)CCC2 [DCB-70103, (Z)-5-phenylsulfonamido-3-((3-carboxyethyl-4-oxo-4,5,6,7-tetrahydro-1H-indol-2-yl)methylene)indolin-2-one] | 44.7 | 51 |
| CC(=O)Nc1ccc2c(c1)/C(=C/c1[nH]c3c(c1CCC(=O)O)C(=O)CCC3)C(=O)N2 [DCB-70104, (Z)-5-acetamido-3-((3-carboxyethyl-4-oxo-4,5,6,7-tetrahydro-1H-indol-2-yl)methylene)indolin-2-one] | 13.9 | 27.2 |
| O=C(O)CCc1c(/C=C2\C(=O)Nc3ccc(S(=O)(=O)N4CCc5ccccc54)cc32)[nH]c2c1C(=O)CCC2 [DCB-70106, (Z)-5-(indolin-1-ylsulfonyl)-3-((3-carboxyethyl-4-oxo-4,5,6,7-tetrahydro-1H-indol-2-yl)methylene)indolin-2-one] | 10.2 | 36.3 |
| CN1CCN(S(=O)(=O)c2ccc3c(c2)/C(=C/c2[nH]c4c(c2CCC(=O)O)C(=O)CCC4)C(=O)N3)CC1 [DCB-70107, (Z)-5-(4-methylpiperazin-1-ylsunfonyl)-3-((3-carboxyethyl-4-oxo-4,5,6,7-tetrahydro-1H-indol-2-yl)methylene)indolin-2-one hydrochloride] | 10.8 | 8 |
| CCOC(=O)CCc1c(/C=C2\C(=O)Nc3ccc(-c4ccc(F)cc4)cc32)[nH]c2c1C(=O)CCC2 [DCB-70108, (Z)-5-(4-fluorophenyl)-3-((3-(3-ethoxy-3-oxopropyl)-4-oxo-4,5,6,7-tetrahydro-1H-indol-2-yl)methylene)indolin-2-one] | 11.8 | 4 |
| O=C(O)CCc1c(/C=C2\C(=O)Nc3ccc(-c4ccc(F)cc4)cc32)[nH]c2c1C(=O)CCC2 [DCB-70109, (Z)-5-(4-fluorophenyl)-3-((3-carboxyethyl-4-oxo-4,5,6,7-tetrahydro-1H-indol-2-yl)methylene)indolin-2-one] | 19.2 | 22.6 |
| O=C(O)CCc1c(/C=C2\C(=O)Nc3ccc(S(=O)(=O)N4CCCCC4)cc32)[nH]c2c1C(=O)CCC2 [DCB-70114, (Z)-5-(piperidin-1-ylsulfonyl)-3-((3-carboxyethyl-4-oxo-4,5,6,7-tetrahydro-1H-indol-2-yl)methylene)indolin-2-one] | 12 | 5.6 |
| C=CS(=O)(=O)c1ccc2c(c1)/C(=C/c1[nH]c3c(c1CCC(=O)O)C(=O)CCC3)C(=O)N2 [DCB-70115, (Z)-5-vinylsulfonyl-3-((3-carboxyethyl-4-oxo-4,5,6,7-tetrahydro-1H-indol-2-yl)methylene)indolin-2-one] | 26.8 | 22 |
| CCS(=O)(=O)c1ccc2c(c1)/C(=C/c1[nH]c3c(c1CCC(=O)O)C(=O)CCC3)C(=O)N2 [DCB-70116, (Z)-5-ethylsulfonyl-3-((3-carboxyethyl-4-oxo-4,5,6,7-tetrahydro-1H-indol-2-yl)methylene)indolin-2-one] | 19.4 | 11.2 |
| CNS(=O)(=O)c1ccc2c(c1)/C(=C/c1[nH]c3c(c1CCC(=O)N1CCN(C)CC1)C(=O)CCC3)C(=O)N2 [DCB-70117] | 48.3 | 8.9 |
| CCOC(=O)CCc1c(/C=C2\C(=O)Nc3ccc(NS(=O)(=O)CC)cc32)[nH]c2c1C(=O)CCC2 [DCB-70118, (Z)-5-ethylsulfonamido-3-((3-(3-ethoxy-3-oxopropyl)-4-oxo-4,5,6,7-tetrahydro-1H-indol-2-yl)methylene)indolin-2-one] | 12.7 | 16.1 |
| CCS(=O)(=O)Nc1ccc2c(c1)/C(=C/c1[nH]c3c(c1CCC(=O)O)C(=O)CCC3)C(=O)N2 [DCB-70119, (Z)-5-ethylsulfonamido-3-((3-carboxyethyl-4-oxo-4,5,6,7-tetrahydro-1H-indol-2-yl)methylene)indolin-2-one] | -3.9 | 8.3 |
| CN1CCN(C(=O)CCc2c(/C=C3\C(=O)Nc4ccc(S(=O)(=O)N5CCCC5)cc43)[nH]c3c2C(=O)CCC3)CC1 [DCB-70120, (Z)-3-((3-(3-(4-methylpiperazin-l-yl)-3-oxopropyl)-4-oxo-4,5,6,7-tetrahydro-1H-indol-2-yl)methylene)-5-(pyrrolidin-1-ylsulfonyl)indolin-2-one] | 31.2 | 7.6 |

Results, then the compound that gave them:

| inhibition at 0.1 µM [1] [%] | inhibition at 0.5 µM [2] [%] | SMILES |
| --- | --- | --- |
| 14.6 | 16.9 | CN(C)S(=O)(=O)c1ccc2c(c1)/C(=C/c1[nH]c3c(c1CCC(=O)O)C(=O)CCC3)C(=O)N2 [DCB-70121, (Z)-5-(N,N-dimethylsulfamoyl)-3-((3-carboxyethyl-4-oxo-4,5,6,7-tetrahydro-1H-indol-2-yl)methylene)indolin-2-one] |
| 82.2 | 64.3 | CCOC(=O)CCc1c(/C=C2\C(=O)Nc3cc(F)ccc32)[nH]c2c1C(=O)CCC2 [DCB-70122, (Z)-6-fluoro-3-((3-(3-ethoxy-3-oxopropyl)-4-oxo-4,5,6,7-tetrahydro-1H-indol-2-yl)methylene)indolin-2-one] |
| 61.1 | 67.2 | O=C(O)CCc1c(/C=C2\C(=O)Nc3cc(F)ccc32)[nH]c2c1C(=O)CCC2 [DCB-70123, (Z)-6-fluoro-3-((3-carboxyethyl-4-oxo-4,5,6,7-tetrahydro-1H-indol-2-yl)methylene)indolin-2-one] |
| 88.6 | 64.3 | CCN(CC)C(=O)CCc1c(/C=C2\C(=O)Nc3ccc(F)cc32)[nH]c2c1C(=O)CCC2 [DCB-70124, (Z)-N,N-diethyl-3-(2-((5-fluoro-2-oxoindolin-3-ylidene)methyl)-4-oxo-4,5,6,7-tetrahydro-1H-indol-3-yl)propanamide] |
| 94.6 | 78.2 | O=C1Nc2ccc(F)cc2/C1=C/c1[nH]c2c(c1CCC(=O)N1CCOCC1)C(=O)CCC2 [DCB-70125, (Z)-5-fluoro-3-((3-(3-morpholino-3-oxopropyl)-4-oxo-4,5,6,7-tetrahydro-1H-indol-2-yl)methylene)indolin-2-one] |
| 3.2 | 9 | CCOC(=O)CCc1c(/C=C2\C(=O)Nc3cc(-c4ccc5c(c4)OCO5)ccc32)[nH]c2c1C(=O)CCC2 [DCB-70128, (Z)-ethyl 3-(2-((6-(benzo[d][1,3]dioxol-5-yl)-2-oxoindolin-3-ylidene)methyl)-4-oxo-4,5,6,7-tetrahydro-1H-indol-3-yl)propanoate] |
| 12.3 | 1.4 | CCOC(=O)CCc1c(/C=C2\C(=O)Nc3ccc(NC(=O)Nc4cccc5ccccc45)cc32)[nH]c2c1C(=O)CCC2 [DCB-70129, (Z)-ethyl 3-(2-((5-(3-naphthalen-1-ylureido)-2-oxoindolin-3-ylidene)methyl)-4-oxo-4,5,6,7-tetrahydro-1H-indol-3-yl)propanoate] |
| 89.1 | 84.9 | CCOC(=O)CCc1c(/C=C2\C(=O)Nc3cc(Br)ccc32)[nH]c2c1C(=O)CCC2 [DCB-70130, (Z)-ethyl 3-(2-((6-bromo-2-oxoindolin-3-ylidene)methyl)-4-oxo-4,5,6,7-tetrahydro-1H-indol-3-yl)propanoate] |
| 85.1 | 40.8 | CCOC(=O)CCc1c(/C=C2\C(=O)Nc3ccc(NCc4ccccc4)cc32)[nH]c2c1C(=O)CCC2 [DCB-70131, (Z)-ethyl 3-(2-((5-(benzylamino)-2-oxoindolin-3-ylidene)methyl)-4-oxo-4,5,6,7-tetrahydro-1H-indol-3-yl)propanoate] |
